For series [1], the system named is smoke exposure-induced COPD rats. The experiment in a line: Pharmacodynamic study of 17-HPC inhalation in smoke exposure-induced COPD rats (lung function, BALF differential count, HE staining, body weight). It counts as in vivo, Wistar rats. To be noted: for weight increase: at 24 weeks. On the procedure: (§1) Seventy-two Wistar rats were randomly divided into the blank control group, model group, 17-HPC (0.5 mg/ml, 0.25 mg/ml and 0.1 mg/ml) groups, BUD (0.5 mg/ml and 0.1 mg/ml) groups, and combination treatment (0.5 mg/ml BUD+0.25 mg/ml 17-HPC and 0.1 mg/ml BUD+0.25 mg/ml 17-HPC) groups. Drug concentration is the nebulized solution concentration. Lung function (forced vital capacity) of rats was measured using the small animal spirometer, and differential count in the BALF was determined under the microscope. Serum and BALF cytokine (IL-6, IL-17, TNF-α and IL-β) levels were measured by ELISA. Inflammatory cell infiltration area and MLI in rat lung tissues were determined by HE staining.

Series [2] deals with IL-6, IL-17, TNF-α and IL-1β. The experiment in a line: Serum and BALF cytokine levels by ELISA in COPD rats. The format is in vivo, Wistar rats. To be noted: aside from the low dose (0.1 mg/ml) 17-HPC group. On the procedure: as §1, with “To examine the in vitro and in vivo efficacy of 17-HPC inhalation in chronic obstructive pulmonary disease (COPD) rats, a rat model of COPD was established by exposing Wistar rats to CS for 1 hour every day for a total of 180 days. Seventy-two” for “Seventy-two”
In general terms: ELISA stands for enzyme-linked immunosorbent assay.

The subject of a further series is Sprague-Dawley rats. The series is described as follows: Seven-day inhalation toxicity study in rats (GLP). The format is in vivo. On the procedure: A 7-day inhalation toxicity study in rats was conducted under GLP conditions. In this study, aerosolized 17-HPC was administered to Sprague-Dawley rats (10/sex/group) at 8, 24, and 72 mg/kg/day for 7 consecutive days. A control group of rats was dosed with aerosolized vehicle. Animals were observed daily for clinical signs. Body weight and food consumption were recorded at pretest, and then on Days 1, 4, and 7. In order to evaluate reversibility of 17-HPC treatment, a satellite rat group (5/sex/group) was dosed by inhalation at 72 mg/kg/day for 7 days, and then was sacrificed on Day 14. Except for the rats in the satellite group, all animals were sacrificed on Day 8. Hematology and biochemistry examinations were performed at the end of the study. Organ weight, gross pathology, and histopathology evaluations were performed.

The nature of series [3]: PK of PR2005 formulations (oral gavage, capsule, IM) in female dogs, relative bioavailability vs MAKENA. It counts as in vivo. To be noted: 750 mg compared to 250 mg. From the text:
This study determined the pharmacokinetic parameters of the test drug PR2005 (also referred to herein as 17-HPC) in different formulations after oral gavage or capsule administrations in dogs. This study further determined the relative bioavailability of the test drug PR2005 in each formulation, compared to intramuscular injection solution (MAKENA®).
PK parameters were estimated, including maximum plasma drug concentration (Cmax), time to reach Cmax (Tmax), time delay in absorption process (Tlag), area under the plasma concentration-time curve from time 0 to the last quantifiable data point (AUClast), area under the plasma concentration-time curve from time zero to infinity (AUCinf), plasma half-life (t1/2) and apparent plasma clearance (CL/F), apparent volume of distribution (Vz/F). All these parameters were computed using standard non-compartmental methods of analysis. […] Plasma PR2005 PK data was analyzed in Phoenix WinNonLin 8.1 (Certara USA, Inc.).
Log-transformed values of AUCinf were analyzed using a linear mixed-effects model. […] After back transformation from the log scale, estimates of geometric LSM and 90% CI for the ratio of means were calculated. Relative bioavailability (Fr %) was calculated as the ratio of dose normalized geometric least square mean (LSM) for test formulation and IM solution: […]

For series [4], the target named is ABCB1 efflux transporters (Homo sapiens, UniProt P08183). To be noted: literature (Bloise et al. 2016); cited from earlier work.
Chain of ABCB1 efflux transporters (P08183 whole entry): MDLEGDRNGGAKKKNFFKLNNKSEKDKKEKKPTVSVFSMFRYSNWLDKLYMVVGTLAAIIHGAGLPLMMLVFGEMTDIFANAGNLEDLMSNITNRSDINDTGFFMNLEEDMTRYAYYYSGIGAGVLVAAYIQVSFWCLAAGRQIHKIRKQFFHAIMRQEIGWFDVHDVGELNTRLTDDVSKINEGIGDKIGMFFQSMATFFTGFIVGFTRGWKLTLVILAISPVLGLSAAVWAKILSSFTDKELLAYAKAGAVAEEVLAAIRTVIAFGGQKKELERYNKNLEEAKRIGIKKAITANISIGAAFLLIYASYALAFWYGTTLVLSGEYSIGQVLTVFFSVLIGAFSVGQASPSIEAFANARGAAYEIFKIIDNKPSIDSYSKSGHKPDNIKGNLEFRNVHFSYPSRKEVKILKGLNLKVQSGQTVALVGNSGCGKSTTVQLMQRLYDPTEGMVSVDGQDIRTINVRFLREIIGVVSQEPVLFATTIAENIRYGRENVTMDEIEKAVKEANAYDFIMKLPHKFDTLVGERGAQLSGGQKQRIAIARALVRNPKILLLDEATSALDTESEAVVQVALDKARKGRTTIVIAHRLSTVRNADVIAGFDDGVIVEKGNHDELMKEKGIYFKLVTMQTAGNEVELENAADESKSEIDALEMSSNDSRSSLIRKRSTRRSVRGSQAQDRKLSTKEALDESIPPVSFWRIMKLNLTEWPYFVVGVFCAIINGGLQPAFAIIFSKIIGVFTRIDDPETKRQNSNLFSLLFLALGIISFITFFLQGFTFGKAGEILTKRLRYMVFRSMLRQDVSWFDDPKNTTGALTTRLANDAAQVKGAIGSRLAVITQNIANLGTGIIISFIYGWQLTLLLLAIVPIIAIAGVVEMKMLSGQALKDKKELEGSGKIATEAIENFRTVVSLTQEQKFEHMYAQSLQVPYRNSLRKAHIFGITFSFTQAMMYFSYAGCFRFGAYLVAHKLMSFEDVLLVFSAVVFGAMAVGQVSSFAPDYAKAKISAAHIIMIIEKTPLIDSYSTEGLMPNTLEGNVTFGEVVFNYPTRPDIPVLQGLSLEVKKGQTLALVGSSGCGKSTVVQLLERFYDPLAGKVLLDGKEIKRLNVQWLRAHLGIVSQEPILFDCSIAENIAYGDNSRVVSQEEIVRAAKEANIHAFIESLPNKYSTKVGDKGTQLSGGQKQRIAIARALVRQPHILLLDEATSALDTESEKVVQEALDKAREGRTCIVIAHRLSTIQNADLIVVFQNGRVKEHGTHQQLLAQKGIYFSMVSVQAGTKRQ

On to `CCCC1O[C@@H]2C[C@H]3[C@@H]4CCC5=CC(=O)C=C[C@]5(C)[C@H]4[C@@H](O)C[C@]3(C)[C@]2(C(=O)CO)O1` (stereo partly drawn) [BUD, budesonide], for which the weight increase result in series [1] (vs model group) was “inhibited weight increase”.
`CCCCCC(=O)O[C@]1(C(C)=O)CC[C@H]2[C@@H]3CCC4=CC(=O)CC[C@]4(C)[C@H]3CC[C@@]21C` [Solution 17-HPC, 17-[(1-Oxohexyl)oxyl]-pregn-4-ene-3,20-dione]: in series [1] (vs model group), the weight increase entry is “no difference in weight increase between the 17-HPC groups and the model group”. In addition, the MLI result in series [1] (lung tissue, HE staining) is “decreased in the other 17-HPC groups and BUD groups in a dose-dependent manner”. Besides, in series [1] (nebulized inhalation), the “inflammatory cell infiltration in lung tissues (HE staining)” value is “attenuated in the 17-HPC groups” and the “percentage of neutrophils in rat BALF” value is “reduced the percentage of neutrophils in rat BALF”. In addition, the FEV0.2/FVC % result in series [1] (nebulized inhalation, vs model group, after 24 weeks of CS exposure) is “improved FEV0.2/FVC % in a dose-dependent manner”. Moreover, the “TNF-α, IL-1β, IL-6 and IL-17 levels in the BALF” value in series [2] was “can downregulate TNF-α, IL-1β, IL-6 and IL-17 levels in the BALF”. Also, in the series on Sprague-Dawley rats (8 mg/kg/day group, inhalation 7 days, preliminary), the “clinical signs and body weight change” value was “no clinical signs and body weight change were observed”. Further, the “Hematological and biochemical parameters” value in the series on Sprague-Dawley rats (8 mg/kg/day vs vehicle, preliminary) was “comparable between the animals treated with vehicle and 17-HPC at 8 mg/kg/day”. In addition, in the series with Sprague-Dawley rats (8 mg/kg/day, preliminary), the “organ weights, necropsy and histopathology” value was “Significant changes in organ weights, necropsy and histopathology were not recorded”. For the same molecule, in the series with Sprague-Dawley rats (rat NOAEL 48 mg/m^2/day vs 222 μg/m^2/day), the “NOAEL relative to proposed initial clinical dose (300 μg) based on body surface areas” value was “approximately 216 times”. In addition, the “no observed adverse effect level (NOAEL), body surface” value with Sprague-Dawley rats (rats, inhalation, 7 consecutive days) is 48 mg/m^2/day. Besides, in the series with Sprague-Dawley rats (satellite group, 72 mg/kg/day for 7 days, sacrificed Day 14), the “pathological alterations after 7-day recovery period” value is given as “no remarkable pathological alterations in any animals from the satellite group”. Besides, the “dose proportionality of Cmax and AUC” value in series [3] is “generally greater than dose proportional”. Further, the efflux transporter substrate result in series [4] was “substrate of ABCB1 efflux transporters”.

These data come from patent publication US20240285649A1, “PROGESTOGEN FORMULATIONS FOR USE IN MODULATING A CYTOKINE STORM MEDIATOR” (Shenzhen Evergreen Therapeutics Co., Ltd, priority 2020, published 2024).
